# Columns and labels:
# [1] = tested on: E. coli S30 extract (bacterial protein synthesis); test: E. coli S30 extract coupled transcription-translation luciferase assay (inhibition of bacterial protein synthesis); format: biochemical; details: class by IC50 or % inhibition @ 1 μM, read-out: S30 IC50 (μM/% inhib.)
# In short: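 Luciferase luminescence quantified inhibition of protein synthesis relative to water controls, with no-DNA reactions giving background. Compounds in 2-fold serial dilution (8 levels) were incubated 1 hour at 37 °C with E. coli S30 extract, amino acids and pBESTluc plasmid, then chilled to stop.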
# [2] = target: Rabbit Reticulocyte Lysate (eukaryotic protein synthesis); test: Rabbit reticulocyte lysate luciferase assay (inhibition of eukaryotic protein synthesis); format: biochemical; details: class by IC50 or % inhibition @ 1 μM, read-out: Rabbit reticulocyte IC50 (μM/% inhib.)
# In short: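 Percent inhibition calculated against water-only controls from luminescence; background set by lysate lacking RNA. Compounds, 8-point 2-fold titration, incubated 90 minutes at 30° C with nuclease-treated rabbit reticulocyte lysate programmed with luciferase control RNA plus complete amino acids.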
# E. coli (Ec) = test: Broth microdilution minimum inhibitory concentration (MIC), CLSI; format: cell-based; details: growth medium supplemented with sodium bicarbonate; for MIC: Escherichia coli, read-out: E. coli + bicarb MIC
# In short: (§1)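 Two-fold serial dilutions in CAMHB, optionally with sodium bicarbonate (6.25 or 25 mM final) or heat-inactivated human serum (0-50%), 8 concentrations, triplicate. Inoculum 5×10^4 CFU/well from log-phase cultures grown at 35±2 °C to 0.5 McFarland.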
# P. aeruginosa (Pa) = test: as above; format: cell-based; details: growth medium supplemented with sodium bicarbonate; for MIC: Pseudomonas aeruginosa, read-out: Pa MIC + bicarb
# In short: as §1
# E. faecalis (Ef) = test: as above; format: cell-based; details: growth medium supplemented with sodium bicarbonate; for MIC: Enterococcus faecalis, read-out: Ef + bicarb MIC
# In short: as §1
# S. aureus (Sa) = test: as above; format: cell-based; details: growth medium supplemented with sodium bicarbonate; for MIC: Staphylococcus aureus, read-out: Sa + bicarb MIC
# In short: as §1
# A. baumannn (Ab) = test: as above; format: cell-based; details: for MIC: Acinetobacter baumannii, read-out: Ab + bicarb MIC
# In short: as §1
Structure (SMILES),IC50 [1] [µM],IC50 [2] [µM],MIC (E. coli (Ec)) [µg/mL],MIC (P. aeruginosa (Pa)) [µg/mL],Ef + bicarb MIC (E. faecalis (Ef)),MIC (S. aureus (Sa)) [µg/mL],MIC (A. baumannn (Ab)) [µg/mL],MIC (E. faecalis (Ef)) [µg/mL],E. coli + bicarb MIC (E. coli (Ec)),Pa MIC + bicarb (P. aeruginosa (Pa)),Sa + bicarb MIC (S. aureus (Sa)),"Ab + bicarb MIC (A. baumannn (Ab); A. baumannii, growth medium supplemented with sodium bicarbonate)"
CC(C)(N)C(=O)N1CCN(C(=O)Nc2ccn(-c3ccc(CCN4C5CCC4CC(N)C5)cc3)c(=O)n2)CC1 (centres unmarked) [Compound 106],≥ 1,≥ 1,< 8,> 32,++ (An MIC value (μg/mL) that is 8 μg/mL or greater and less than 32 μg/mL),< 8,> 32,,,,,
CC(C)(N)C(=O)N1CCN(C(=O)Nc2ccn(-c3ccc(CCN4CC5(CCC5N)C4)cc3)c(=O)n2)CC1 (centres unmarked) [Compound 107],≥ 1,≥ 1,< 8,> 32,,< 8,> 32,8 to 32,,,,
CC(C)(N)C(=O)N1CCN(C(=O)Nc2ccn(-c3ccc(CCN4C5CCC4CC(N)C5)cc3)c(=O)n2)CC1 (centres unmarked) [Compound 108],≥ 1,≥ 1,,,+ (An MIC (μg/mL) value that is 32 μg/mL or greater),,,,+++ (An MIC value (μg/mL) that is less than 8 μg/mL),+ (An MIC (μg/mL) value that is 32 μg/mL or greater),+++ (An MIC value (μg/mL) that is less than 8 μg/mL),+ (An MIC (μg/mL) value that is 32 μg/mL or greater)
CC(C)(N)C(=O)N1CCN(C(=O)Nc2ccn(-c3cccc(CCN4CC5(CC(N)C5)C4)c3)c(=O)n2)CC1 [Compound 109],< 0.5,≥ 1,< 8,> 32,,< 8,> 32,> 32,,,,
CC(C)(N)C(=O)N1CCN(C(=O)Nc2ccn(-c3cccc(CCN4CCC5(CC4)CC(N)C5)c3)c(=O)n2)CC1 [Compound 110],0.5 to 1,≥ 1,< 8,> 32,,< 8,> 32,8 to 32,,,,
CC(Cc1ccc(-n2ccc(NC(=O)N3CCN(C(=O)C(C)(C)N)CC3)nc2=O)cc1)N1CC2(CCC2N)C1 (centres unmarked) [Compound 111],≥ 1,≥ 1,< 8,> 32,,< 8,> 32,8 to 32,,,,
CC(Cc1ccc(-n2ccc(NC(=O)N3CCN(C(=O)C(C)(C)N)CC3)nc2=O)cc1)N1CC2(CC(N)C2)C1 (centres unmarked) [Compound 112],0.5 to 1,≥ 1,< 8,> 32,,< 8,> 32,8 to 32,,,,
CC(C)(N)C(=O)N1CCN(C(=O)Nc2ccn(-c3cccc(CCN4CC5CCC(C4)C5N)c3)c(=O)n2)CC1 (centres unmarked) [Compound 113],≥ 1,≥ 1,< 8,> 32,,> 32,> 32,> 32,,,,
CC(Cc1ccc(-n2ccc(NC(=O)N3CCN(C(=O)C(C)(C)N)CC3)nc2=O)cc1)N1CCC2(CC1)CC(N)C2 (centres unmarked) [Compound 114],< 0.5,≥ 1,< 8,8 to 32,,< 8,8 to 32,< 8,,,,
CC(Cc1ccc(-n2ccc(NC(=O)N3CCN(C(=O)[C@@](C)(N)CO)CC3)nc2=O)cc1)N1CCC2(CC1)CC(N)C2 (some centres unmarked) [Compound 115],< 0.5,≥ 1,< 8,> 32,,< 8,> 32,< 8,,,,
CC(C)(N)C(=O)N1CCN(C(=O)Nc2ccn(-c3ccc(CCN4C[C@@H]5[C@@H](CN)[C@@H]5C4)cc3)c(=O)n2)CC1 [Compound 116],< 0.5,≥ 1,< 8,8 to 32,,< 8,< 8,8 to 32,,,,
CC(C)(N)C(=O)N1CCN(C(=O)Nc2ccn(-c3ccc(CCN4CC5CC5(CN)C4)cc3)c(=O)n2)CC1 (centres unmarked) [Compound 117],< 0.5,≥ 1,< 8,8 to 32,,< 8,8 to 32,< 8,,,,
C[C@@](N)(CO)C(=O)N1CCN(C(=O)Nc2ccn(-c3ccc(CCN4CC5CC5(CN)C4)cc3)c(=O)n2)CC1 (some centres unmarked) [Compound 120],< 0.5,≥ 1,< 8,8 to 32,,< 8,> 32,8 to 32,,,,
CC(CN1C[C@@H]2[C@@H](CN)[C@@H]2C1)c1ccc(-n2ccc(NC(=O)N3CCN(C(=O)C(C)(C)N)CC3)nc2=O)cc1 (some centres unmarked) [Compound 121],0.5 to 1,≥ 1,< 8,8 to 32,,< 8,> 32,8 to 32,,,,

# — US12692253B2, “Antimicrobial compounds and methods” (Curza Global, LLC, priority 2019, dated 2026)
